Legend:
[1] = system: TF1 JAK2 V617F STAT5 reporter; experiment: Cellular TF1 STAT5 assay (luciferase reporter), JAK2 V617F; assay type: cell-based; conditions: TF1 JAK2 V617F, read-out: Cell PD TF1 V617F STAT5 (IC50)
Outline: (§1)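 Inhibition of JAK2 V617F-mediated STAT3/STAT5 signalling is measured by reporter luminescence in TF1 erythroleukemia cells treated overnight (18-20 h) with a 10-point compound series; DMSO serves as vehicle.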

[2] = biological target: T1, JAK2 JH2 WT (V536-D812) [W659A, W777A, F794H solubilizing mutations] (Homo sapiens, UniProt O60674, F794H/W659A/W777A); experiment: Surface Plasmon Resonance (SPR) binding assay, JAK2 JH2 domain; conditions: SPR, JAK2 JH2 domain
T1 construct: **JAK2 JH2 WT (V536-D812) [W659A, W777A, F794H solubilizing mutations]; C-thrombin-avi-His6; thrombin cleavage site (C); His6 (C); purchased Biortus
T1 sequence (O60674 536-812 W659A/W777A/F794H): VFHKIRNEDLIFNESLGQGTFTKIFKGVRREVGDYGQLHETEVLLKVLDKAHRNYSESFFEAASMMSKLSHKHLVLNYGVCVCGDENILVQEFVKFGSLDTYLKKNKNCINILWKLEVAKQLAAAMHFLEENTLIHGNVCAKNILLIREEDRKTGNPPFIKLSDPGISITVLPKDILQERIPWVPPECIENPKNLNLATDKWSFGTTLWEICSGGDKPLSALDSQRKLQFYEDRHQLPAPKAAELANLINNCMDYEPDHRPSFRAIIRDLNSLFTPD
Outline: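 Kinetics came from 1:1 fits of single-cycle runs at 20 °C: four 3-fold dilutions from 5 uM for JH1 or 500 nM for JH2, 60 s association, and 300 s or 1200 s dissociation respectively. Protein was freshly captured per compound in the presence of 10 uM stabilizer compound, with running buffer of pH 7.5 HEPES/NaCl/glycerol/DTT plus 2% DMSO.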

[3] = system: TF1 JAK2 V617F STAT3 reporter; experiment: Cellular TF1 STAT3 assay (luciferase reporter), JAK2 V617F; assay type: cell-based; conditions: TF1 JAK2 V617F, read-out: Cell PD-TF1 JAK2 V617F STAT3 (IC50)
Outline: as §1

IC50 [1]	Kd [2]	IC50 [3]	Structure (SMILES)
50 to 500 nM	0.01 to 10 nM	50 to 500 nM	CNC(=O)c1nnc(NC(=O)C2CC2)cc1Nc1cccc(-c2cnn(C3CN(Cc4cccnn4)C3)c2)c1OC [Compound 109]
500 to 5000 nM	0.01 to 10 nM	50 to 500 nM	CNC(=O)c1nnc(NC(=O)C2CC2)cc1Nc1cccc(-c2cnn(C3CN(Cc4cnccn4)C3)c2)c1OC [Compound 110]
50 to 500 nM	0.01 to 10 nM	50 to 500 nM	CNC(=O)c1nnc(NC(=O)C2CC2)cc1Nc1cccc(-c2cnn(C3CN(Cc4cc(C)ccn4)C3)c2)c1OC [Compound 111]
50 to 500 nM	0.01 to 10 nM	50 to 500 nM	CNC(=O)c1nnc(NC(=O)C2CC2)cc1Nc1cc(F)cc(-c2ccc(C(=O)N(C)Cc3cc(C#N)ccn3)nc2)c1OC [Compound 112]
500 to 5000 nM	10 to 50 nM	500 to 5000 nM	CNC(=O)c1nnc(NC(=O)C2CC2)cc1Nc1cccc(-c2ccc(C(=O)N(C)Cc3ccc(F)cc3)nc2)c1OC [Compound 113]
5000 to 100000 nM	10 to 50 nM	5000 to 100000 nM	CNC(=O)c1nnc(NC(=O)C2CC2)cc1Nc1cccc(-c2ccc(C(=O)N(C)CC(F)F)nc2)c1OC [Compound 114]
500 to 5000 nM	0.01 to 10 nM	500 to 5000 nM	CNC(=O)c1nnc(NC(=O)C2CC2)cc1Nc1cccc(-c2ccc(C(=O)N(C)Cc3cc(C#N)ccn3)c(C#N)c2)c1OC [Compound 118]
5000 to 100000 nM	0.01 to 10 nM	5000 to 100000 nM	CNC(=O)c1nnc(NC(=O)C2CC2)cc1Nc1cccc(-c2ccc(C(=O)N3CCc4cnn(C)c4C3)nc2)c1OC [Compound 120]
5000 to 100000 nM	0.01 to 10 nM	500 to 5000 nM	CNC(=O)c1nnc(NC(=O)C2CC2)cc1Nc1cccc(-c2cnn(C3CN(CC4(C#N)CC4)C3)c2)c1OC [Compound 121]
50 to 500 nM	0.01 to 10 nM	50 to 500 nM	CNC(=O)c1nnc(NC(=O)C2CC2)cc1Nc1cccc(-c2cnn(C3CN(Cc4nccs4)C3)c2)c1OC [Compound 122]
500 to 5000 nM	0.01 to 10 nM	500 to 5000 nM	CNC(=O)c1nnc(NC(=O)C2CC2)cc1Nc1cccc(-c2cnn(C3CN(Cc4ncc(C)s4)C3)c2)c1OC [Compound 123]
50 to 500 nM	0.01 to 10 nM	50 to 500 nM	CNC(=O)c1nnc(NC(=O)C2CC2)cc1Nc1cccc(-c2cnn(C3CN(Cc4cscn4)C3)c2)c1OC [Compound 124]
500 to 5000 nM	0.01 to 10 nM	500 to 5000 nM	CNC(=O)c1nnc(NC(=O)C2CC2)cc1Nc1cccc(-c2cnn(C3CN(Cc4ncsc4C)C3)c2)c1OC [Compound 125]
50 to 500 nM	0.01 to 10 nM	50 to 500 nM	CNC(=O)c1nnc(NC(=O)C2CC2)cc1Nc1cccc(-c2cnn(C3CN(Cc4csc(C)n4)C3)c2)c1OC [Compound 126]
500 to 5000 nM	0.01 to 10 nM	500 to 5000 nM	CNC(=O)c1nnc(NC(=O)C2CC2)cc1Nc1cccc(-c2cnn(C3CN(Cc4cc(F)ccc4F)C3)c2)c1OC [Compound 128]
500 to 5000 nM	10 to 50 nM	500 to 5000 nM	CNC(=O)c1nnc(NC(=O)C2CC2)cc1Nc1cccc(-c2cnn(C3CN(Cc4cccc(F)c4F)C3)c2)c1OC [Compound 129]
500 to 5000 nM	0.01 to 10 nM	500 to 5000 nM	CNC(=O)c1nnc(NC(=O)C2CC2)cc1Nc1cccc(-c2cnn(C3CN(Cc4ccccc4)C3)c2)c1OC [Compound 130]
500 to 5000 nM	0.01 to 10 nM	500 to 5000 nM	CNC(=O)c1nnc(NC(=O)C2CC2)cc1Nc1cccc(-c2ccc(C(=O)N(C)Cc3cc(C#N)ccn3)c(F)c2)c1OC [Compound 131]
500 to 5000 nM	0.01 to 10 nM	500 to 5000 nM	CNC(=O)c1nnc(NC(=O)C2CC2)cc1Nc1cccc(-c2ccc(C(=O)N(C)Cc3ccn(C)n3)c(F)c2)c1OC [Compound 132]
500 to 5000 nM	0.01 to 10 nM	50 to 500 nM	CNC(=O)c1nnc(NC(=O)C2CC2)cc1Nc1cccc(-c2ccc(C(=O)N(C)Cc3ccc(C)cn3)nc2)c1OC [Compound 134]
5000 to 100000 nM	10 to 50 nM	5000 to 100000 nM	CNC(=O)c1nnc(NC(=O)C2CC2)cc1Nc1cccc(-c2ccc(C(=O)N(C)Cc3cc(C#N)ccn3)nc2C2CC2)c1OC [Compound 137]
500 to 5000 nM	0.01 to 10 nM	500 to 5000 nM	CNC(=O)c1nnc(NC(=O)C2CC2)cc1Nc1cccc(-c2cnn(C3CN(Cc4nnc(C)s4)C3)c2)c1OC [Compound 144]

IC50 [1]	Kd [2]	IC50 [3]	Structure (SMILES)
50 to 500 nM	0.01 to 10 nM	50 to 500 nM	CNC(=O)c1nnc(NC(=O)C2CC2)cc1Nc1cccc(-c2cnc(C(=O)N(C)Cc3cc(C#N)ccn3)cc2C2CC2)c1OC [Compound 153]
5000 to 100000 nM	0.01 to 10 nM	5000 to 100000 nM	CNC(=O)c1nnc(NC(=O)C2CC2)cc1Nc1cccc(-c2ccc(C(=O)N(C)Cc3nccc(C#N)c3F)nc2)c1OC [Compound 154]
50 to 500 nM	0.01 to 10 nM	50 to 500 nM	CNC(=O)c1nnc(NC(=O)C2CC2)cc1Nc1ccc(C)c(-c2ccc(C(=O)N(C)Cc3cn(C)nc3C)nc2)c1OC [Compound 164]
500 to 5000 nM	0.01 to 10 nM	500 to 5000 nM	CNC(=O)c1nnc(NC(=O)C2CC2)cc1Nc1cccc(-c2cn(C3CN(Cc4ccccn4)C3)nc2C(F)F)c1OC [Compound 165]
500 to 5000 nM	0.01 to 10 nM	500 to 5000 nM	CNC(=O)c1nnc(NC(=O)C2CC2)cc1Nc1cccc(-c2ccc(C(=O)N(C)Cc3cnn(C)c3C)nc2)c1OC [Compound 166]
50 to 500 nM	0.01 to 10 nM	50 to 500 nM	CNC(=O)c1nnc(NC(=O)C2CC2)cc1Nc1cccc(-c2ccc(C(=O)N(C)Cc3cccc(C)n3)nc2)c1OC [Compound 167]
50 to 500 nM	0.01 to 10 nM	50 to 500 nM	CNC(=O)c1nnc(NC(=O)C2CC2)cc1Nc1cccc(-c2ccc(C(=O)N(C)Cc3c(C)nn(C)c3C)nc2)c1OC [Compound 168]
50 to 500 nM	0.01 to 10 nM	50 to 500 nM	CNC(=O)c1nnc(NC(=O)C2CC2)cc1Nc1cccc(-c2cnn(C3CN(Cc4cccnc4Cl)C3)c2)c1OC [Compound 169]
500 to 5000 nM	0.01 to 10 nM	500 to 5000 nM	CNC(=O)c1nnc(NC(=O)C2CC2)cc1Nc1cccc(-c2ccc(C(=O)N(C)Cc3cc(C#N)ccn3)c(C(F)(F)F)c2)c1OC [Compound 170]
500 to 5000 nM	0.01 to 10 nM	500 to 5000 nM	CNC(=O)c1nnc(NC(=O)C2CC2)cc1Nc1cccc(-c2ccc(C(=O)N(C)Cc3ccn(C)n3)c(C(F)(F)F)c2)c1OC [Compound 171]
50 to 500 nM	0.01 to 10 nM	50 to 500 nM	CNC(=O)c1nnc(NC(=O)C2CC2)cc1Nc1cccc(-c2cnc(C(=O)N(C)Cc3cn(C)nc3C)c(F)c2)c1OC [Compound 172]
50 to 500 nM	0.01 to 10 nM	50 to 500 nM	CNC(=O)c1nnc(NC(=O)C2CC2)cc1Nc1cccc(-c2cnn(C3CN(Cc4csnn4)C3)c2)c1OC [Compound 173]
50 to 500 nM	0.01 to 10 nM	50 to 500 nM	CNC(=O)c1nnc(NC(=O)C2CC2)cc1Nc1cccc(-c2ccc(C(=O)N(C)Cc3csc(C)n3)nc2)c1OC [Compound 174]
5000 to 100000 nM	0.01 to 10 nM	5000 to 100000 nM	CNC(=O)c1nnc(NC(=O)C2CC2)cc1Nc1cccc(-c2cc(C3CN(Cc4cnn(C)c4)C3)nn2C)c1OC [Compound 175]
50 to 500 nM	0.01 to 10 nM	500 to 5000 nM	CNC(=O)c1cnc(NC(=O)C2CC2)cc1Nc1cccc(-c2ccc(C(=O)N(C)Cc3cc(C#N)ccn3)nc2)c1OC [Compound 176]
5000 to 100000 nM	0.01 to 10 nM	5000 to 100000 nM	CNC(=O)c1nnc(NC(=O)C2CC2)cc1Nc1cccc(-c2cc(C3CN(Cc4cc(C#N)ccn4)C3)nn2C)c1OC [Compound 177]
5000 to 100000 nM	0.01 to 10 nM	5000 to 100000 nM	CNC(=O)c1nnc(NC(=O)C2CC2)cc1Nc1cccc(-c2ccc(C(=O)N(C)Cc3ncc(C#N)s3)nc2)c1OC [Compound 178]
500 to 5000 nM	0.01 to 10 nM	500 to 5000 nM	CNC(=O)c1nnc(NC(=O)C2CC2)cc1Nc1cccc(-c2ccc(C(=O)N(C)Cc3cccc(OC(F)F)n3)nc2)c1OC [Compound 179]
500 to 5000 nM	0.01 to 10 nM	500 to 5000 nM	CNC(=O)c1nnc(NC(=O)C2CC2)cc1Nc1ccc(C)c(-c2ccc(C(=O)N(C)Cc3nccs3)nc2)c1OC [Compound 180]
500 to 5000 nM	0.01 to 10 nM	5000 to 100000 nM	CNC(=O)c1nnc(NC(=O)C2CC2)cc1Nc1cccc(-c2ccc(C3CN(Cc4ccccn4)C3)nc2)c1OC [Compound 182]
50 to 500 nM	0.01 to 10 nM	500 to 5000 nM	CNC(=O)c1nnc(NC(=O)C2CC2)cc1Nc1cccc(-c2cn(C3CN(Cc4cccc(C#N)n4)C3)nn2)c1OC [Compound 183]
500 to 5000 nM	0.01 to 10 nM	500 to 5000 nM	CNC(=O)c1nnc(NC(=O)C2CC2)cc1Nc1cccc(-c2cn(C3CN(Cc4ccccn4)C3)nc2C)c1OC [Compound 184]

— US20240368122A1, “JAK2 INHIBITORS AND METHODS OF USE THEREOF” (RELAY THERAPEUTICS, INC., priority 2021, published 2024)
